Reference: US10894777B2, “TG2 inhibitor piperazine compounds and uses thereof” (UNIVERSITY OF OTTAWA, priority 2016, dated 2021)

Experiments:
TG2 mRNA = TG2 mRNA expression by qRT-PCR in GBM cell lines; assay type: cell-based, human; settings: 10 μM, 24 or 48 h
Protocol: Q-RTPCR. After RNA isolation, cDNA was synthesized using the verso cDNA kit (ThermoFisher) with oligo-dT primers following the manufacturer's instructions. Quantitative real time PCR was carried out using SYBR green mix (Agilent Technologies) along with primers against total human TG2 or GAPDH (for normalization) as previously described (Cao, L. et al., Oncogene 31(20):2521-34, 2012).

A431 cells = experiment: Matrigel invasion assay, A431 cells; assay type: cell-based, human
Protocol: In (A), it is shown that A431-derived ECS cells have elevated TG2 and mesenchymal markers. A431 cells (40,000 cells/well) were grown in spheroid media in monolayer conditions or as non-attached spheroids (ECS cells) for 10 d. Cells were harvested and lysates prepared for immunoblot. In (B), A431 cells were electroporated with 3 μg of control- or TG2-siRNA and at 72 h extracts were prepared to assay TG2 and EMT marker level. In (C), A431-derived ECS cells were electroporated with 3 μg of the indicated siRNA and then grown as spheroids for 96 h. […] In (D), A431 cells (500,000 cells/well) were plated in monolayer culture in spheroid media in 100 mm dishes. […] Confluent monolayers were then scratched with a 10-μL pipette tip, rinsed, and width of the wound was monitored for 0-14 h.
In (A), A431 cells were grown as monolayers or in ultralow attachment plates (spheroids) in spheroid medium. […] Spheroid number was counted on days 1, 2 and 3. […] Spheroid number and trypan-blue viable cell number were determined at the indicated times following NC9 addition. […] A wound was created and ability of the cells to close the wound was monitored with time. […]
Invasion assay. […] The membrane was fixed in 4% paraformaldehyde, stained with 1 μg/m DAPI, and the underside of the membrane was photographed with an inverted fluorescent microscope and the number of cells counted.

TG2 = biological target: T1, TG2 (Homo sapiens, UniProt P21980); experiment: In vitro GTP binding assay after inhibition of hTG2 (BODIPY GTP-γ-S); settings: inhibitor 2×KI, 30 min; 3 μM GTP-γ-S FL BODIPY
T1 sequence (P21980 1-687): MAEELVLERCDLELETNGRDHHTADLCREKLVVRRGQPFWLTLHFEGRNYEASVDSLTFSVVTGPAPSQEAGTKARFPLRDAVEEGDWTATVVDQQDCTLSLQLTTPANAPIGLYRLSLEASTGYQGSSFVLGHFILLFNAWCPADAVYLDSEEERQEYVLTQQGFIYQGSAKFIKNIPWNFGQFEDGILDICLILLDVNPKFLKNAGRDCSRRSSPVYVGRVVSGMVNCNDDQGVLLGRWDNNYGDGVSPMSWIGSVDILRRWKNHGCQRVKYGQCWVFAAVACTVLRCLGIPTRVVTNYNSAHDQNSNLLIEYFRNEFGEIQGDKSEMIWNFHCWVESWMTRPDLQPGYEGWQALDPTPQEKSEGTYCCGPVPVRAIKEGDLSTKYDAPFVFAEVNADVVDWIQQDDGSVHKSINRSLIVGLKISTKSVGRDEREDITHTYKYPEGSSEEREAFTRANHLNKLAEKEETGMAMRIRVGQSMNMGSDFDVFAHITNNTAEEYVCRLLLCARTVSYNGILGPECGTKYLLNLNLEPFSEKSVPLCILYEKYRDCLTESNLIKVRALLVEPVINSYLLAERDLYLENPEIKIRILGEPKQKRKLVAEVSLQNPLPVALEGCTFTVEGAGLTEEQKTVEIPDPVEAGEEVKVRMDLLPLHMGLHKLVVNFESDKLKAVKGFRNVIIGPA
Protocol: In vitro GTP binding assay. GTP binding was measured using a method similar to that reported previously (McEwen, D. P. et al., Anal. Biochem. (2001), 291 (1): 109-117). […] The buffer was then exchanged to 100 mM MOPS (pH=7.0), 1 mM EGTA and 5 mM MgCl2 to remove calcium using a 10-kDa molecular weight cut off membrane. The fluorescent GTP analog was then added to give a final concentration of 3.0 μM and fluorescence was then measured on a microplate reader after 10 minutes of incubation (Ex/Em: 490/520 nm).

Row | Structure (SMILES) | TG2 mRNA levels (TG2 mRNA) | reduction of ability of A431 ECS cells to invade Matrigel (A431 cells; 20 μM 1 hour, 24 hours) [%] | matrigel invasion (A431 cells; 20 μM pretreatment 2 h, 30 h) | GTP binding of hTG2 after incubation with inhibitor (TG2)
1 | C=CC(=O)NCCCC[C@H](NC(=O)OCc1ccccc1)C(=O)NCCOCCOCCNS(=O)(=O)c1cccc2c(N(C)C)cccc12 [NC9] | no significant effects | 50 | reduced matrigel invasion | –
2 | C=CC(=O)NCCCC[C@H](NC(=O)OCc1ccccc1)C(=O)N1CCN(S(=O)(=O)c2cccc3c(N(C)C)cccc23)CC1 [VA4, (S)-benzyl(6-acrylamido-1-(4-((5-(dimethylamino)naphthalen-1-yl)sulfonyl)piperazin-1-yl)-1-oxohexan-2-yl)carbamate] | – | – | – | abolish GTP binding nearly completely
